Data reported in PMC8022858, “Discovery of bone morphogenetic protein 7-derived peptide sequences that attenuate the human osteoarthritic chondrocyte phenotype” (Molecular Therapy. Methods & Clinical Development, 2021).

Assays:
[1] = test system: human OA meniscus explants; assay: PGE2 levels in culture supernatant of meniscus explants; type: cell-based; settings: 24 h, relative to control (Figure 6F)
Procedure: (§1) Figure 6 Peptide p[63−82] activity on OA knee joint tissues Human OA knee joint tissues were cultured for 24 h in the presence of BMP7, peptide p[63−82], or the scrambled version of peptide p[63−82] and compared to control conditions. (A) Cartilage tissues (n = 7 individual donors) were exposed to shown conditions and analyzed for COL2A1, COL10A1, and COX-2 mRNA expression by quantitative real-time PCR (normalized for 28S rRNA expression and relative to control conditions). (B) GAG release in medium from cartilage tissues (n = 5 individual donors) was determined, and data were calculated relative to the control condition. (C) PGE2 levels in culture supernatant from synovium (n = 5 donors). (D) PGE2 levels in culture supernatant from cartilage tissues from (B) (n = 5 donors). (E) PGE2 levels in culture supernatant from IPFP (n = 5 donors). (F) PGE2 levels in culture supernatant from the meniscus. Synovium, IPFP, and meniscus tissues were from the same 5 donors as the cartilage tissues in (B) and (C). PGE2 levels in conditions were calculated relative to controls for each donor. In graphs, error bars represent mean ± SEM; data are presented relative to the control condition for each time point. Statistical differences (unpaired two-tailed Student’s t test) were calculated to control condition: ∗p < 0.05, ∗∗p < 0.01, and ∗∗∗p < 0.001. […]

[2] = test system: human OA knee cartilage explants; assay: GAG release in medium from cartilage explants; type: cell-based; settings: n = 5 donors, 24 h, relative to control (Figure 6B)
Procedure: To determine whether peptide p[63−82] has the potency to alter chondrocyte behavior in cartilage tissue, rather than isolated HACs, cartilage biopsies from OA knees were cultured in the presence of peptide p[63−82], alongside its scrambled version and full-length BMP7.
as §1, with “Synovium, IPFP, and meniscus tissues were from the same 5 donors as the cartilage tissues in (B) and (C).” left out, “In graphs, error bars represent mean ± SEM; data are presented relative to the control condition for each time point.” left out

OA-HACs = assay: ALP activity assay in OA-HAC cultures; type: cell-based, human; settings: three individual OA-HAC donors, 100 nM peptide, 24 h, normalized to total protein (Figure 2E)
Procedure: Figure 2 Bioactivity of BMP7-derived peptides p[63−82] and p[113−132] on OA-HACs Complete peptide library screening quantitative real-time PCR dataset for peptides p[63−82] and p[113−132] is presented. (A) SOX9, COL2A1, and NKX3-2 mRNA expression in the 18 OA-HAC pool exposed to 1,000, 100, 10, or 1 nM of peptide p[63−82] and p[113−132] is shown and presented relative to control (black bars) and alongside full-length BMP7 (white bars). (B) Similar to (A) but for chondrocyte hypertrophy-associated genes RUNX2, COL10A1, and ALPL. (C) Similar to (A) but for cartilage extracellular matrix remodeling-associated genes MMP13 and ADAMTS5 and inflammation-related genes COX-2 and IL-6. […] (G) In the same OA-HAC pool of 18 OA-HAC donors from the peptide library screening, sequence dependency of peptides p[63−82] and p[113−132] was determined by exposing the OA-HAC pool to scrambled versions of peptides p[63−82] and p[113−132] […] Error bars represent mean ± SEM, and statistical significance for peptide conditions or BMP7 versus control condition as determined by unpaired two-tailed Student’s t test is represented as ∗p < 0.05, ∗∗p < 0.01, and ∗∗∗p < 0.001.
Cells were lysed in 1.5 M Tris-HCl (pH 9.0) and 2% (v/v) Triton X-100 and homogenized by sonication (Soniprep 150 MSE). […] Total protein concentration was determined by a BCA assay. […]

Substance	PGE2 levels from meniscus explants [1]	sGAG release from cartilage explants [2]	alkaline phosphatase (ALP) activity (OA-HACs)
BMP7: full-length recombinant bone morphogenetic protein 7 (R&D Systems), used at 1 nM	reduced	no inhibitory effect	–
H-SVLYFDDSSNVILKKYRNMV-OH [p[113−132]]	–	–	significant decrease
H-AAYYSEGESAFPLNSYMNAT-OH [p[63−82]]	reduced	no inhibitory effect	significant decrease
